Assay results: patent publication US20170050957A1, “4-AMINO-6-(HETEROCYCLIC)PICOLINATES AND 6-AMINO-2-(HETEROCYCLIC)PYRIMIDINE-4-CARBOXYLATES AND THEIR USE AS HERBICIDES” (Dow AgroSciences LLC, priority 2013, published 2017)
Read-outs that look alike come from different tables or passages of the source.

Tests used:
[1] = tested on: Key Broadleaf Weed and Crop Species; experiment: Post-emergent Test II herbicidal activity (Table 15); assay type: in vivo; conditions: post-emergence, 336 h, 14 d; for pest or weed control at 35 g/ha: 35 g ai/ha; for pest or weed control at 70 g/ha: 70 g ai/ha; for pest or weed control at 140 g/ha: 140 g ai/ha
In short: (§1)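 Herbicidal effect scored as percent visual injury, 14 d after post-emergent application. Spray solutions contained acetone, DMSO, isopropyl alcohol, crop oil concentrate and surfactant, applied at 187 L/ha to young plants (1-2 true leaves).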

[2] = tested on: Key Grass and Sedge Weeds as well as Grass Crops; experiment: Post-emergent Test II herbicidal activity (Table 16); assay type: in vivo; conditions: post-emergence, 336 h, 14 d; for pest or weed control at 35 g/ha: 35 g ai/ha; for pest or weed control at 70 g/ha: 70 g ai/ha; for pest or weed control at 140 g/ha: 140 g ai/ha
In short: as §1

[3] = Abutilon theophrasti, velvetleaf (Abutilon theophrasti), read-out: Visual Growth Reduction (%) 14 Days After Application, ABUTH
[4] = Amaranthus retroflexus, redroot pigweed (Amaranthus retroflexus), read-out: Visual Growth Reduction (%) 14 Days After Application, AMARE
[5] = Brassica napus, oilseed rape, canola (Brassica napus), read-out: Visual Growth Reduction (%) 14 Days After Application, BRSNN
[6] = Chenopodium album, lambsquarters (Chenopodium album), read-out: Visual Growth Reduction (%) 14 Days After Application, CHEAL
[7] = Euphorbia heterophylla, wild poinsettia (Euphorbia heterophylla), read-out: Visual Growth Reduction (%) 14 Days After Application, EPHHL
[8] = Helianthus annuus, sunflower (Helianthus annuus), read-out: Visual Growth Reduction (%) 14 Days After Application, HELAN
[9] = Cyperus esculentus, yellow nutsedge (Cyperus esculentus), read-out: Visual Growth Reduction (%) 14 Days After Application, CYPES
[10] = Echinochloa crus-galli, barnyardgrass (Echinochloa crus-galli), read-out: Visual Growth Reduction (%) 14 Days After Application, ECHCG
[11] = Oryza sativa, rice (Oryza sativa), read-out: Visual Growth Reduction (%) 14 Days After Application, ORYSA
[12] = Setaria faberi, giant foxtail (Setaria faberi), read-out: Visual Growth Reduction (%) 14 Days After Application, SETFA
[13] = Triticum aestivum, wheat, spring (Triticum aestivum), read-out: Visual Growth Reduction (%) 14 Days After Application, TRZAS
[14] = Zea mays, maize, corn (Zea mays), read-out: Visual Growth Reduction (%) 14 Days After Application, ZEAMX

COc1c(N)nc(-c2ccc3cc[nH]c3c2F)nc1C(=O)O [Compound 1.35]
30 to 44%: pest or weed control at 35 g/ha [1, 8] | pest or weed control at 70 g/ha [2, 13]
85 to 94%: pest or weed control at 70 g/ha [1, 4] | pest or weed control at 140 g/ha [1, 6] | pest or weed control at 140 g/ha [1, 7]
60 to 74%: pest or weed control at 70 g/ha [1, 8]
95 to 100%: pest or weed control at 140 g/ha [1, 4] | pest or weed control at 35 g/ha [1, 5] | pest or weed control at 70 g/ha [1, 5] | pest or weed control at 140 g/ha [1, 5] | pest or weed control at 140 g/ha [1, 8]
45 to 59%: pest or weed control at 140 g/ha [2, 13]
0 to 29%: pest or weed control at 35 g/ha [1, 3] | pest or weed control at 70 g/ha [1, 3] | pest or weed control at 140 g/ha [1, 3] | pest or weed control at 35 g/ha [1, 6] | pest or weed control at 70 g/ha [1, 6] | pest or weed control at 35 g/ha [2, 9] | pest or weed control at 70 g/ha [2, 9] | pest or weed control at 140 g/ha [2, 9] | pest or weed control at 35 g/ha [2, 10] | pest or weed control at 70 g/ha [2, 10] | pest or weed control at 140 g/ha [2, 10] | pest or weed control at 35 g/ha [2, 11] | pest or weed control at 70 g/ha [2, 11] | pest or weed control at 140 g/ha [2, 11] | pest or weed control at 35 g/ha [2, 12] | pest or weed control at 70 g/ha [2, 12] | pest or weed control at 140 g/ha [2, 12] | pest or weed control at 35 g/ha [2, 13] | pest or weed control at 35 g/ha [2, 14] | pest or weed control at 70 g/ha [2, 14] | pest or weed control at 140 g/ha [2, 14]
75 to 84%: pest or weed control at 35 g/ha [1, 4] | pest or weed control at 35 g/ha [1, 7] | pest or weed control at 70 g/ha [1, 7]

COc1c(N)nc(-c2cc3[nH]ccc3cc2F)nc1C(=O)O [Compound 1.37]
75 to 84%: pest or weed control at 140 g/ha [1, 5]
0 to 29%: pest or weed control at 35 g/ha [1, 3] | pest or weed control at 70 g/ha [1, 3] | pest or weed control at 140 g/ha [1, 3] | pest or weed control at 35 g/ha [1, 4] | pest or weed control at 70 g/ha [1, 4] | pest or weed control at 140 g/ha [1, 4] | pest or weed control at 35 g/ha [1, 6] | pest or weed control at 70 g/ha [1, 6] | pest or weed control at 140 g/ha [1, 6] | pest or weed control at 35 g/ha [1, 7] | pest or weed control at 70 g/ha [1, 7] | pest or weed control at 140 g/ha [1, 7] | pest or weed control at 35 g/ha [1, 8] | pest or weed control at 70 g/ha [1, 8] | pest or weed control at 140 g/ha [1, 8] | pest or weed control at 35 g/ha [2, 9] | pest or weed control at 70 g/ha [2, 9] | pest or weed control at 140 g/ha [2, 9] | pest or weed control at 35 g/ha [2, 10] | pest or weed control at 70 g/ha [2, 10] | pest or weed control at 140 g/ha [2, 10] | pest or weed control at 35 g/ha [2, 11] | pest or weed control at 70 g/ha [2, 11] | pest or weed control at 140 g/ha [2, 11] | pest or weed control at 35 g/ha [2, 12] | pest or weed control at 70 g/ha [2, 12] | pest or weed control at 140 g/ha [2, 12] | pest or weed control at 35 g/ha [2, 13] | pest or weed control at 70 g/ha [2, 13] | pest or weed control at 140 g/ha [2, 13] | pest or weed control at 35 g/ha [2, 14] | pest or weed control at 70 g/ha [2, 14] | pest or weed control at 140 g/ha [2, 14]
60 to 74%: pest or weed control at 70 g/ha [1, 5]
30 to 44%: pest or weed control at 35 g/ha [1, 5]
